Assay results reported in the supplement of paper PMC10307832.

Columns and labels:
Assay in all cases: relative viability (nuclei count vs DMSO), 5 days (fraction); higher = more cells survive
NCI-H2228 = test system: NCI-H2228
Summary of the method: (§1)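 Lung cancer cell lines in 1536-well plates got either a single drug or a fixed anchor-drug dose together with five library-drug doses (not always all listed) in √10 steps, by pin tool, on the day after seeding. Nuclei were counted after 5 days, and relative viability is the treated-to-vehicle ratio of nuclei counts. Values are medians of duplicate plates.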

SK-LU-1 = test system: SK-LU-1
Summary of the method: as §1

NCI-H647 = test system: NCI-H647
Summary of the method: as §1

NCI-H1355 = test system: NCI-H1355
Summary of the method: as §1

LOU-NH91 = test system: LOU-NH91
Summary of the method: as §1

HARA = test system: HARA
Summary of the method: as §1

NCI-H2170 = test system: NCI-H2170
Summary of the method: as §1

NCI-H1792 = test system: NCI-H1792
Summary of the method: as §1

NCI-H1437 = test system: NCI-H1437
Summary of the method: as §1

BEN = test system: BEN
Summary of the method: as §1

NCI-H2009 = test system: NCI-H2009
Summary of the method: as §1

NCI-H2405 = test system: NCI-H2405
Summary of the method: as §1

LC-2-ad = test system: LC-2-ad
Summary of the method: as §1

EKVX = test system: EKVX
Summary of the method: as §1

NCI-H2087 = test system: NCI-H2087
Summary of the method: as §1

NCI-H1734 = test system: NCI-H1734
Summary of the method: as §1

NCI-H2342 = test system: NCI-H2342
Summary of the method: as §1

SK-MES-1 = test system: SK-MES-1
Summary of the method: as §1

HCC-366 = test system: HCC-366
Summary of the method: as §1

HCC-827 = test system: HCC-827
Summary of the method: as §1

NCI-H1395 = test system: NCI-H1395
Summary of the method: as §1

NCI-H596 = test system: NCI-H596
Summary of the method: as §1

NCI-H661 = test system: NCI-H661
Summary of the method: as §1

Oc1nc(-c2ccc(C(F)(F)F)cc2)nc2c1CSCC2 [XAV939] + N=C(N)NC(=N)NCCc1ccccc1 [Phenformin] (partner 250 µM)
relative viability (NCI-H2228; first compound 0.08 µM): 0.3
relative viability (NCI-H2228; first compound 0.253 µM): 0.328
relative viability (NCI-H2228; first compound 0.8 µM): 0.296
relative viability (NCI-H2228; first compound 2.53 µM): 0.252
relative viability (SK-LU-1; first compound 0.08 µM): 0.548
relative viability (SK-LU-1; first compound 0.253 µM): 0.513
relative viability (SK-LU-1; first compound 0.8 µM): 0.447
relative viability (SK-LU-1; first compound 2.53 µM): 0.556
relative viability (NCI-H647; first compound 0.08 µM): 0.553
relative viability (NCI-H647; first compound 0.253 µM): 0.438
relative viability (NCI-H647; first compound 0.8 µM): 0.61
relative viability (NCI-H647; first compound 2.53 µM): 0.28
relative viability (NCI-H1355; first compound 0.08 µM): 0.455
relative viability (NCI-H1355; first compound 0.253 µM): 0.428
relative viability (NCI-H1355; first compound 0.8 µM): 0.43
relative viability (NCI-H1355; first compound 2.53 µM): 0.435
relative viability (LOU-NH91; first compound 0.08 µM): 0.672
relative viability (LOU-NH91; first compound 0.253 µM): 0.627
relative viability (LOU-NH91; first compound 0.8 µM): 0.702
relative viability (LOU-NH91; first compound 2.53 µM): 0.618
relative viability (HARA; first compound 0.08 µM): 0.425
relative viability (HARA; first compound 0.253 µM): 0.448
relative viability (HARA; first compound 0.8 µM): 0.452
relative viability (HARA; first compound 2.53 µM): 0.432
relative viability (NCI-H2170; first compound 0.08 µM): 0.393
relative viability (NCI-H2170; first compound 0.253 µM): 0.394
relative viability (NCI-H2170; first compound 0.8 µM): 0.413
relative viability (NCI-H2170; first compound 2.53 µM): 0.362
relative viability (NCI-H1792; first compound 0.08 µM): 0.432
relative viability (NCI-H1792; first compound 0.253 µM): 0.308
relative viability (NCI-H1792; first compound 0.8 µM): 0.303
relative viability (NCI-H1792; first compound 2.53 µM): 0.331
relative viability (NCI-H1437; first compound 0.08 µM): 0.343
relative viability (NCI-H1437; first compound 0.253 µM): 0.243
relative viability (NCI-H1437; first compound 0.8 µM): 0.287
relative viability (NCI-H1437; first compound 2.53 µM): 0.252
relative viability (BEN; first compound 0.08 µM): 0.245
relative viability (BEN; first compound 0.253 µM): 0.226
relative viability (BEN; first compound 0.8 µM): 0.264
relative viability (BEN; first compound 2.53 µM): 0.243
relative viability (NCI-H2009; first compound 0.08 µM): 0.524
relative viability (NCI-H2009; first compound 0.253 µM): 0.484
relative viability (NCI-H2009; first compound 0.8 µM): 0.421
relative viability (NCI-H2009; first compound 2.53 µM): 0.441
relative viability (NCI-H2405; first compound 0.08 µM): 0.373
relative viability (NCI-H2405; first compound 0.253 µM): 0.399
relative viability (NCI-H2405; first compound 0.8 µM): 0.363
relative viability (NCI-H2405; first compound 2.53 µM): 0.413
relative viability (LC-2-ad; first compound 0.08 µM): 0.638
relative viability (LC-2-ad; first compound 0.253 µM): 0.571
relative viability (LC-2-ad; first compound 0.8 µM): 0.569
relative viability (LC-2-ad; first compound 2.53 µM): 0.575
relative viability (EKVX; first compound 0.08 µM): 0.219
relative viability (EKVX; first compound 0.253 µM): 0.225
relative viability (EKVX; first compound 0.8 µM): 0.213
relative viability (EKVX; first compound 2.53 µM): 0.221
relative viability (NCI-H2087; first compound 0.08 µM): 0.6
relative viability (NCI-H2087; first compound 0.253 µM): 0.455
relative viability (NCI-H2087; first compound 0.8 µM): 0.433
relative viability (NCI-H2087; first compound 2.53 µM): 0.395
relative viability (NCI-H1734; first compound 0.08 µM): 0.44
relative viability (NCI-H1734; first compound 0.253 µM): 0.386
relative viability (NCI-H1734; first compound 0.8 µM): 0.337
relative viability (NCI-H1734; first compound 2.53 µM): 0.393
relative viability (NCI-H2342; first compound 0.08 µM): 0.555
relative viability (NCI-H2342; first compound 0.253 µM): 0.518
relative viability (NCI-H2342; first compound 0.8 µM): 0.552
relative viability (NCI-H2342; first compound 2.53 µM): 0.451
relative viability (SK-MES-1; first compound 0.08 µM): 0.759
relative viability (SK-MES-1; first compound 0.253 µM): 0.643
relative viability (SK-MES-1; first compound 0.8 µM): 0.613
relative viability (SK-MES-1; first compound 2.53 µM): 0.631
relative viability (HCC-366; first compound 0.08 µM): 0.638
relative viability (HCC-366; first compound 0.253 µM): 0.596
relative viability (HCC-366; first compound 0.8 µM): 0.65
relative viability (HCC-366; first compound 2.53 µM): 0.634
relative viability (HCC-827; first compound 0.08 µM): 0.364
relative viability (HCC-827; first compound 0.253 µM): 0.421
relative viability (HCC-827; first compound 0.8 µM): 0.452
relative viability (HCC-827; first compound 2.53 µM): 0.394
relative viability (NCI-H1395; first compound 0.08 µM): 0.429
relative viability (NCI-H1395; first compound 0.253 µM): 0.443
relative viability (NCI-H1395; first compound 0.8 µM): 0.438
relative viability (NCI-H1395; first compound 2.53 µM): 0.462
relative viability (NCI-H596; first compound 0.08 µM): 0.699
relative viability (NCI-H596; first compound 0.253 µM): 0.673
relative viability (NCI-H596; first compound 0.8 µM): 0.764
relative viability (NCI-H596; first compound 2.53 µM): 0.774
relative viability (NCI-H661; first compound 0.08 µM): 0.277
relative viability (NCI-H661; first compound 0.253 µM): 0.272
relative viability (NCI-H661; first compound 0.8 µM): 0.281
relative viability (NCI-H661; first compound 2.53 µM): 0.267
